# Laboratory results: patent publication US10662218B2, “Analogs of celastrol” (ERX Pharmaceuticals, Inc., priority 2015, dated 2020)
# Several values for one entry are separate records, joined by “and”; a condition that tells them apart may be missing. Identical values can stand only once. Like-named read-outs stand apart in the source and are kept apart here.
# What was measured:
# [1] = Compound solubility in PBS (pH 7.4), LC-MS/MS; conditions: PBS (pH 7.4), pH 7.4, aqueous buffer, kinetic from dmso stock
# Method: • Test concentration: 100 μM (1% of DMSO) • Test systems: PBS (pH 7.4) • Incubation condition: shaken (1000 rpm) for 1 h at room temperature • Sample size: Duplicates (n=2) • Bioanalytical method: LC-MS/MS
# [2] = tested on: C57BL/6 Diet Induced Obese (DIO) mice; test: Oral (P.O.) administration study in DIO mice: in vivo activity, body weights; set-up: species or system mouse; conditions: for change in vivo at 2 mg/kg: Mus musculus, po, difference of group mean, read-out: Body weight, %-Diff
# Excerpt: The purpose of this study was to assess test articles in the Diet Induced Obese (DIO) mouse.
# Male C57BL/6 Diet Induced Obese (DIO) mice were received from Taconic. Animals were acclimated to housing conditions for at least 1 week prior to vehicle acclimation dosing. Animals were acclimated to oral gavage dosing with vehicle once daily for Days 11 through 14 of the predose phase.
# At initiation of dosing, animals were 21 to 22 weeks old, and their body weights ranged from 29.8 to 40.1 g.
# Dose formulations were administered by oral gavage once daily for 10 days at a dose volume of 2 mL/kg. Doses were based on the most recently recorded scheduled body weight.
# Body weights were recorded daily on Days 11 through 14 of the predose phase. Body weights were collected for all animals daily during the dosing phase prior to dosing.
# Descriptive statistics (n, mean, standard error of the mean, standard deviation) were completed. Additionally, one-way analysis of variance followed by Dunnett's post-hoc test were performed on body weight (cumulative body weight change), glucose (glucose percent change), and food consumption (cumulative food consumption). Area under the curve (for body weight, cumulative body weight change, daily body weight change, and food consumption) was computed for treatment groups. An appropriate comparison test, such as one-way analysis of variance and Dunnett's, was performed on the group means for the area under the curve computations. Any additional statistical analysis and interpretation of the results were the responsibility of the sponsor.
# [3] = Solubility (μM) Mean, Table 6-B, test concentration 100 μM (1% of DMSO), shaken (1000 rpm) 1 h at room temperature, n = 2
# [4] = 2 mg/kg oral gavage once daily, dosing phase Day 1
# [5] = 2 mg/kg oral gavage once daily, dosing phase Day 1, N 5
# [6] = 2 mg/kg oral gavage once daily, dosing phase Day 2
# [7] = 2 mg/kg oral gavage once daily, dosing phase Day 2, N 5
# [8] = 2 mg/kg oral gavage once daily, dosing phase Day 3
# [9] = 2 mg/kg oral gavage once daily, dosing phase Day 3, N 5
# [10] = 2 mg/kg oral gavage once daily, dosing phase Day 4
# [11] = 2 mg/kg oral gavage once daily, dosing phase Day 4, N 5
# [12] = 2 mg/kg oral gavage once daily, dosing phase Day 5
# [13] = 2 mg/kg oral gavage once daily, dosing phase Day 5, N 5
# [14] = 2 mg/kg oral gavage once daily, dosing phase Day 6
# [15] = 2 mg/kg oral gavage once daily, dosing phase Day 6, N 5
# [16] = Day 7, DSNG phase, 2 mg/kg, male, N=5
# [17] = Day 8, DSNG phase, 2 mg/kg, male, N=5
# [18] = Day 9, DSNG phase, 2 mg/kg, male, N=5
# [19] = Day 10, DSNG phase, 2 mg/kg, male, N=5
# [20] = Day 11, DSNG phase, 2 mg/kg, male, N=5
# [21] = 168 h, Day 7, DSNG phase, 2 mg/kg, male
# [22] = 192 h, Day 8, DSNG phase, 2 mg/kg, male
# [23] = 216 h, Day 9, DSNG phase, 2 mg/kg, male
# [24] = 240 h, Day 10, DSNG phase, 2 mg/kg, male
# [25] = 264 h, Day 11, DSNG phase, 2 mg/kg, male
structure (smiles),measurement,setting,value
CCCOC1=C(C)C2=CC=C3[C@@](C)(CC[C@@]4(C)[C@@H]5C[C@](C)(C(N)=O)CC[C@]5(C)CC[C@]34C)C2=CC1=O [ERX1121],solubility at 1 h,[1]; [3],1.55 µM
same,solubility at 1 h,"[1]; Solubility (μM), Table 6-D",1.55 µM
CC1=C(O)C(=O)C=C2C1=CC=C1[C@@]2(C)CC[C@@]2(C)[C@@H]3C[C@](C)(CN4CCOCC4)CC[C@]3(C)CC[C@]12C [ERX1116],solubility at 1 h,[1]; [3],0.47 µM
same,solubility at 1 h,"[1]; Solubility (μM), Table 6-D",0.47 µM
CC1=C(O)C(=O)C=C2C1=CC=C1[C@@]2(C)CC[C@@]2(C)[C@@H]3C[C@](C)(C(=O)N4CC(O)C4)CC[C@]3(C)CC[C@]12C [ERX1020],solubility,[1]; [3],0.54 µM
same,solubility,"[1]; Solubility (μM), Table 6-D",0.54 µM
CC(=O)N1CCN(c2ccc(OCC3COC(Cn4ccnc4)(c4ccc(Cl)cc4Cl)O3)cc2)CC1 (stereo not shown) [Ketoconazole],solubility at 1 h,[1]; [3],35.7 µM
same,solubility at 1 h,"[1]; Solubility (μM) Mean, Table 6-C, test concentration 100 μM (1% of DMSO), shaken (1000 rpm) 1 h at room temperature, n = 2",35.2 µM
same,solubility at 1 h,"[1]; Solubility (μM), Table 6-D",35.7 µM
CC1=C(O)C(=O)C=C2C1=CC=C1[C@@]2(C)CC[C@@]2(C)[C@@H]3C[C@](C)(C(=O)O)CC[C@]3(C)CC[C@]12C [ERX1000],solubility,[1]; [3],3.89 µM
same,solubility,"[1]; Solubility (μM), Table 6-D",3.89 µM
same,Body weight %-Diff,[2]; [4],0%
same,"Body weight, Mean",[2]; [5],34.2 g
same,Body weight %-Diff,[2]; [6],−1%
same,"Body weight, Mean",[2]; [7],34.0 g
same,Body weight %-Diff,[2]; [8],−2%
same,"Body weight, Mean",[2]; [9],33.1 g
same,Body weight %-Diff,[2]; [10],−3%
same,"Body weight, Mean",[2]; [11],32.5 g
same,Body weight %-Diff,[2]; [12],−5%
same,"Body weight, Mean",[2]; [13],32.1 g
same,Body weight %-Diff,[2]; [14],−6%
same,"Body weight, Mean",[2]; [15],31.4 g
same,"Body weight, Mean",[2]; [16],30.6 g
same,"Body weight, Mean",[2]; [17],30.4 g
same,"Body weight, Mean",[2]; [18],30.3 g
same,"Body weight, Mean",[2]; [19],30.0 g
same,"Body weight, Mean",[2]; [20],29.1 g
same,change in vivo at 2 mg/kg,[2]; [21],-9%
same,change in vivo at 2 mg/kg,[2]; [22],-10%
same,change in vivo at 2 mg/kg,[2]; [23],-9%
same,change in vivo at 2 mg/kg,[2]; [24],-10%
same,change in vivo at 2 mg/kg,[2]; [25],-15%
C=CCOC1=C(C)C2=CC=C3[C@@](C)(CC[C@@]4(C)[C@@H]5C[C@](C)(C(N)=O)CC[C@]5(C)CC[C@]34C)C2=CC1=O [ERX1124],solubility at 1 h,[1]; [3],1.04 µM
same,solubility at 1 h,"[1]; Solubility (μM), Table 6-D",1.03 µM
CC(=O)Oc1cc2c(c(C)c1OC(C)=O)C(SC(C)=O)C=C1[C@@]2(C)CC[C@@]2(C)[C@@H]3C[C@](C)(C(=O)O)CC[C@]3(C)CC[C@]12C (stereo partly shown) [ERX1076],solubility at 1 h,[1]; [3],6.44 µM
same,solubility at 1 h,"[1]; Solubility (μM), Table 6-D",6.43 µM
CC1=C(O)C(=O)C=C2C1=CC=C1[C@@]2(C)CC[C@@]2(C)[C@@H]3C[C@](C)(C(N)=O)CC[C@]3(C)CC[C@]12C [ERX1006],solubility,[1]; [3],1.15 µM
same,solubility,"[1]; Solubility (μM), Table 6-D",1.15 µM
same,Body weight %-Diff,[2]; [4],−1%
same,"Body weight, Mean",[2]; [5],34.1 g
same,Body weight %-Diff,[2]; [6],−2%
same,"Body weight, Mean",[2]; [7],33.9 g
same,Body weight %-Diff,[2]; [8],−1%
same,"Body weight, Mean",[2]; [9],33.4 g
same,Body weight %-Diff,[2]; [10],−2%
same,"Body weight, Mean",[2]; [11],32.8 g
same,Body weight %-Diff,[2]; [12],−4%
same,"Body weight, Mean",[2]; [13],32.6 g
same,Body weight %-Diff,[2]; [14],−3%
same,"Body weight, Mean",[2]; [15],32.5 g
same,"Body weight, Mean",[2]; [16],32.0 g
same,"Body weight, Mean",[2]; [17],31.7 g
same,"Body weight, Mean",[2]; [18],31.4 g
same,"Body weight, Mean",[2]; [19],31.2 g
same,"Body weight, Mean",[2]; [20],30.9 g
same,change in vivo at 2 mg/kg,[2]; [21],-4%
same,change in vivo at 2 mg/kg,[2]; [22],-6%
same,change in vivo at 2 mg/kg,[2]; [23],-5%
same,change in vivo at 2 mg/kg,[2]; [24],-7%
same,change in vivo at 2 mg/kg,[2]; [25],-9%
same,"Individual Body Weight, PRED 11","[2]; individual male DIO mouse of the 2 mg/kg group, pre-dose phase day 11 (baseline)",37.6 g and 34.5 g and 32.2 g and 35.2 g and 36.7 g
same,"Individual Body Weight, PRED 12","[2]; individual male DIO mouse of the 2 mg/kg group, pre-dose phase day 12 (baseline)",38.0 g and 35.2 g and 32.7 g and 34.8 g and 36.8 g
same,"Individual Body Weight, PRED 13","[2]; individual male DIO mouse of the 2 mg/kg group, pre-dose phase day 13 (baseline)",37.4 g and 35.4 g and 32.5 g and 34.1 g and 36.3 g
same,"Individual Body Weight, PRED 14","[2]; individual male DIO mouse of the 2 mg/kg group, pre-dose phase day 14 (baseline)",38.5 g and 35.4 g and 32.7 g and 34.3 g and 36.9 g
same,"Individual Body Weight, DSNG 1","[2]; individual male DIO mouse, 2 mg/kg, dosing phase day 1, 2 mg/kg",35.7 g and 35.0 g and 32.7 g and 32.4 g and 34.9 g
same,"Individual Body Weight, DSNG 2","[2]; individual male DIO mouse, 2 mg/kg, dosing phase day 2, 2 mg/kg",35.0 g and 35.6 g and 31.8 g (2×) and 35.2 g
